The values that follow come from PubChem BioAssay (NCI).

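In this assay, cells in 96-well plates receive the compound at five concentrations for 48 hours. Endpoints are linearly interpolated between the surrounding concentrations. GI50 is the concentration that inhibits growth by half. At the TGI there is no net growth.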

Common to all, as to assay: NCI anticancer screen, dose series, 48 h
Assay [1] relates to MDA-MB-435.
The test system of assay [2] is DU-145 prostate.
For assay [3], the system named is MCF7 breast.
Assay [4] relates to PC-3 prostate.
Assay [5] has as its system NCI/ADR-RES ovarian.
For assay [6], the system named is HOP-18 NSCLC.
Assay [7] relates to M19-MEL melanoma.
For assay [8], the system named is RXF-631 renal.
The test system of assay [9] is MDA-N.

As for `COc1cc(C2C3=C(COC3=O)N(CCO)c3cc4c(cc32)CCC4)cc(OC)c1O` (stereo not given), the GI50 in [1] is 0.0646 µM; in assay [2], 0.136 µM; in [3], 0.107 µM; in assay [4], 0.203 µM; in assay [5], 2.45 µM. The TGI was 0.191 µM in assay [1]; 2.31 µM in assay [2]; above 21.4 µM in [3]; above 32.5 µM in assay [4]; above 21 µM in assay [5].
On to `CC1=CC2=C(C)C3(CC3)[C@@](C)(O)C(=O)C2=C1`, for which the TGI came out at 0.528 µM in assay [6] and 0.732 µM in assay [7].
For the compound `O=c1[nH]c(=O)n(C2CC(O)C(CO)O2)cc1C#Cc1ccc(C(F)(F)F)cc1` (stereo not given), the TGI in assay [8] and in assay [6] was above 100 µM each time.
Take `COC(=O)c1c(C)oc2ccc(OC(C)=O)cc12`: the TGI in [7] is above 100 µM.
For `CCOP(=O)(OCC)/C(C#N)=C\c1cccc2ccccc12`, the TGI in [1], in assay [2], in [3], in assay [4], in assay [5] and in assay [9] was above 100 µM throughout. In assay [7], this compound came in with a TGI above 100 µM.
For the compound `C[C@@H](NC(=O)Cc1cc(F)cc(F)c1)C(=O)N[C@@]1(C)N=C(c2ccccc2)c2ccccc2N(C)C1=O`, the GI50 is 38.9 µM in assay [1]; 30.2 µM in [2]; 36.5 µM in assay [3]; 25.6 µM in assay [4]; 31.9 µM in [5]. Besides, the TGI in assay [1] was above 100 µM; in assay [2], above 100 µM; in assay [3], above 100 µM; in [4], above 100 µM; in assay [5], above 90.7 µM.
As to `CC1(CC(=O)O)OC2CCCCCC2O1` (stereo not given) (tested in a mixture with another compound), the TGI in assay [1], in assay [2], in assay [3], in assay [4], in assay [5] and in assay [9] was above 100 µM in each case.
With `Cc1ccc([P+](Cc2ccc([N+](=O)[O-])cc2)(c2ccc(C)cc2)c2ccc(C)cc2)cc1`, the GI50 is 0.772 µM in [1]; 5.44 µM in assay [2]; 2.72 µM in assay [3]; 2.64 µM in [4]; 68.3 µM in [5]. For the same compound, the TGI in assay [1] was 3.6 µM; in assay [2], 20.8 µM; in assay [3], 12.6 µM; in assay [4] it was 14.3 µM; in [5], above 100 µM.
Consider `COc1cc2oc3ccccc3c(=O)c2cc1CSc1ccccc1N`, for which the TGI in assay [1] is 8.93 µM; in assay [2], above 84.9 µM; in [3] it was above 100 µM; in assay [4], above 100 µM; in assay [5] it was above 70.9 µM; in assay [9] it was above 100 µM.
In the case of `CCC1OCCN1C(C)C` (stereo not given), the TGI in assay [7] is above 100 µM.
For the compound `CC1OC(=O)N(CCCC=C2SCCCS2)C1=O` (stereo not given), the TGI in assay [6] and in [7] was above 100 µM in each case.
Regarding `CC(C)(C)n1cc(-c2ccnc(NCCNS(=O)(=O)c3ccc(Br)cc3)c2)c(-c2cccc(O)c2)n1`, the GI50 in assay [1] was 1.78 µM; in assay [2], 2.14 µM; in [3], 1.48 µM; in assay [4] it was 1.46 µM; in assay [5] it was 2.13 µM. In addition, the TGI in [1] is 3.35 µM; in assay [2], 4.86 µM; in [3] it was 3.7 µM; in [4], 4.38 µM; in assay [5], 4.99 µM.
For the compound `COc1c(O)c(OC)c(C(=O)/C=C/c2ccccc2)c(O)c1OC`, the TGI in assay [1] is 66.2 µM; in assay [2], above 100 µM; in [3] it was above 100 µM; in [4], above 100 µM; in [5] it was 42.6 µM; in assay [9], 46 µM.
For `Cc1cc(CS(=O)(=O)/C=C/c2ccccc2[N+](=O)[O-])c(CS(=O)(=O)/C=C/c2ccccc2[N+](=O)[O-])cc1C`, the TGI in assay [1] is above 100 µM; in assay [2], above 100 µM; in assay [3], above 100 µM; in assay [4] it was above 100 µM; in assay [5], above 100 µM; in [9] it was 99.7 µM. This compound gave a TGI in assay [7] above 100 µM.
`COc1cc[nH]c1/C=C1\C(=O)Nc2ccc(F)c(C#CC3(O)CCOCC3)c21`: the GI50 was 0.57 µM in assay [1]; 0.806 µM in assay [2]; 0.758 µM in assay [3]; 0.669 µM in assay [4]; 0.885 µM in assay [5]. Further, the TGI is 4.05 µM in assay [1]; above 25 µM in [2]; 4.68 µM in assay [3]; 6.52 µM in [4]; 8.42 µM in assay [5].
Turning to `CC(CS(=O)(=O)Cc1ccccc1)C(N)=O` (stereo not given), the TGI in [1], in [2], in [3], in assay [4], in assay [5] and in assay [9] was above 100 µM throughout.
For `c1ccc2c(c1)CCCc1cc3ccccc3nc1-2`, the TGI in assay [6] and in assay [7] was above 100 µM in each case.
For `Cc1c(C(C)C)cc(OCCO)cc1C(C)C`, the TGI in assay [1] is above 100 µM; in assay [2] it was above 100 µM; in [3], above 100 µM; in assay [4], 96.2 µM; in assay [5], above 100 µM; in assay [9], above 100 µM.
In turn, `Clc1ccc2c(Cl)ncnc2c1` registered a TGI in [7] above 100 µM.
